Several values for one entry are separate records, joined by “and”; a condition that tells them apart may be missing. Equal values may be shown once. Inconclusive results and toxic doses are left out.
Test system: L1210 leukemia ip in BDF1 mice, survival T/C
Assay: NCI In Vivo Anticancer Drug Screen. Data for tumor model L1210 Leukemia (intraperitoneal) in B6D2F1 (BDF1) mice
Details: endpoint: mean survival time, higher = longer survival
Method in brief: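 Transplantable tumor model; survival measured in treated vs vehicle control mice. Value = treated/control.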

[1] = dose: 400.0 mg/kg/injection, schedule: Q01DX001 (ip), vehicle: saline
[2] = dose: 100.0 mg/kg/injection, schedule: Q01DX001 (ip), vehicle: saline
[3] = dose: 200.0 mg/kg/injection, schedule: Q01DX001 (ip), vehicle: saline

Structure (SMILES): Cc1cc(C(=O)O)c(C(C)C)cc1C(=O)O
- T/C (dose: 100.0 mg/kg/injection, schedule: Q04DX003 (ip), vehicle: other): 101 % of control
- T/C (dose: 200.0 mg/kg/injection, schedule: Q04DX003 (ip), vehicle: other): 98 % of control
- T/C (dose: 400.0 mg/kg/injection, schedule: Q04DX003 (ip), vehicle: other): 92 % of control

Structure (SMILES): Clc1ccc(OCC2=NCCc3ccccc32)cc1
- T/C (dose: 300.0 mg/kg/injection, schedule: Q01DX001 (ip), vehicle: saline): 98 % of control
- T/C [1]: 104 % of control

Structure (SMILES): O=C1c2ccccc2C(=O)c2c1c(O)c1ccccc1c2O
- T/C (dose: 100.0 mg/kg/injection, schedule: Q#A X Z (im), vehicle: other): 96 % of control
- T/C (dose: 100.0 mg/kg/injection, schedule: Q#A X Z (ip), vehicle: other): 107 % of control
- T/C (dose: 100.0 mg/kg/injection, schedule: Q#A X Z (sc), vehicle: other): 100 % of control
- T/C (dose: 200.0 mg/kg/injection, schedule: Q#A X Z (im), vehicle: other): 97 % of control
- T/C (dose: 200.0 mg/kg/injection, schedule: Q#A X Z (ip), vehicle: other): 96 % of control
- T/C (dose: 200.0 mg/kg/injection, schedule: Q#A X Z (sc), vehicle: other): 107 % of control
- T/C (dose: 300.0 mg/kg/injection, schedule: Q#A X Z (im), vehicle: other): 94 % of control
- T/C (dose: 300.0 mg/kg/injection, schedule: Q#A X Z (ip), vehicle: other): 92 % of control
- T/C (dose: 300.0 mg/kg/injection, schedule: Q#A X Z (sc), vehicle: other): 97 % of control
- T/C (dose: 400.0 mg/kg/injection, schedule: Q#A X Z (im), vehicle: other): 94 % of control
- T/C (dose: 400.0 mg/kg/injection, schedule: Q#A X Z (ip), vehicle: other): 92 % of control
- T/C (dose: 400.0 mg/kg/injection, schedule: Q#A X Z (sc), vehicle: other): 96 % of control
- T/C (dose: 500.0 mg/kg/injection, schedule: Q#A X Z (oral), vehicle: other): 96 % of control
- T/C (dose: 750.0 mg/kg/injection, schedule: Q#A X Z (oral), vehicle: other): 100 % of control

Structure (SMILES): CC1(c2cccc(N)c2)OCCO1
- T/C (dose: 100.0 mg/kg/injection, schedule: Q01DX009 (ip), vehicle: saline with Tween-80): 100 % of control
- T/C (dose: 100.0 mg/kg/injection, schedule: Q04DX003 (ip), vehicle: saline with Tween-80): 94 % of control
- T/C (dose: 200.0 mg/kg/injection, schedule: Q01DX009 (ip), vehicle: saline with Tween-80): 102 % of control
- T/C (dose: 200.0 mg/kg/injection, schedule: Q04DX003 (ip), vehicle: saline with Tween-80): 100 % of control
- T/C (dose: 400.0 mg/kg/injection, schedule: Q01DX009 (ip), vehicle: saline with Tween-80): 91 % of control
- T/C (dose: 400.0 mg/kg/injection, schedule: Q04DX003 (ip), vehicle: saline with Tween-80): 97 % of control

Structure (SMILES): CC1(C)N=C(N)N=C(N)N1c1cccc(/C=C/C=C/c2cccc([N+](=O)[O-])c2)c1
- T/C [2]: 100 % of control

Structure (SMILES): CC1=NNC(=O)CC1
- T/C (dose: 100.0 mg/kg/injection, schedule: Q04DX003 (ip), vehicle: saline): 102 % of control
- T/C (dose: 200.0 mg/kg/injection, schedule: Q04DX003 (ip), vehicle: saline): 104 % of control
- T/C (dose: 400.0 mg/kg/injection, schedule: Q04DX003 (ip), vehicle: saline): 96 % of control

Structure (SMILES): CCC(C(=O)O)(c1ccccc1)c1ccccc1
- T/C (dose: 100.0 mg/kg/injection, schedule: Q04DX002 (ip), vehicle: gum acacia): 93 % of control
- T/C (dose: 200.0 mg/kg/injection, schedule: Q04DX002 (ip), vehicle: gum acacia): 111 % of control
- T/C (dose: 400.0 mg/kg/injection, schedule: Q04DX002 (ip), vehicle: gum acacia): 86 % of control

Structure (SMILES): CC[n+]1cccc(-c2ccc(NC(=O)/C=C/c3ccc(C(=O)Nc4ccc(-c5ccc[n+](CC)c5)cc4)cc3)cc2)c1
- T/C (dose: 7.1 mg/kg/injection, schedule: Q01DX001 (ip), vehicle: carboxymethylcellulose (CMC)): 118 % of control
- T/C (dose: 12.5 mg/kg/injection, schedule: Q01DX Z (ip), vehicle: carboxymethylcellulose (CMC)): 241 % of control
- T/C (dose: 25.0 mg/kg/injection, schedule: Q01DX001 (ip), vehicle: carboxymethylcellulose (CMC)): 152 % of control and 157 % of control
- T/C (dose: 25.0 mg/kg/injection, schedule: Q01DX Z (ip), vehicle: carboxymethylcellulose (CMC)): 211 % of control
- T/C (dose: 50.0 mg/kg/injection, schedule: Q01DX001 (ip), vehicle: carboxymethylcellulose (CMC)): 202 % of control
- T/C (dose: 50.0 mg/kg/injection, schedule: Q01DX Z (ip), vehicle: carboxymethylcellulose (CMC)): 164 % of control
- T/C (dose: 100.0 mg/kg/injection, schedule: Q01DX001 (ip), vehicle: carboxymethylcellulose (CMC)): 238 % of control
- T/C (dose: 200.0 mg/kg/injection, schedule: Q01DX001 (ip), vehicle: carboxymethylcellulose (CMC)): 263 % of control
- T/C (dose: 300.0 mg/kg/injection, schedule: Q01DX001 (ip), vehicle: carboxymethylcellulose (CMC)): 120 % of control
- T/C (dose: 450.0 mg/kg/injection, schedule: Q01DX001 (ip), vehicle: carboxymethylcellulose (CMC)): 124 % of control
- T/C (dose: 675.0 mg/kg/injection, schedule: Q01DX001 (ip), vehicle: carboxymethylcellulose (CMC)): 107 % of control

Structure (SMILES): O=c1[nH]c2ccc([N+](=O)[O-])cc2c2nc3ccccc3n12
- T/C (dose: 50.0 mg/kg/injection, schedule: Q01DX009 (ip), vehicle: Klucel (hydroxypropylcellulose) (HPC)): 95 % of control
- T/C (dose: 100.0 mg/kg/injection, schedule: Q01DX009 (ip), vehicle: Klucel (hydroxypropylcellulose) (HPC)): 101 % of control
- T/C (dose: 200.0 mg/kg/injection, schedule: Q01DX009 (ip), vehicle: Klucel (hydroxypropylcellulose) (HPC)): 95 % of control

Structure (SMILES): CC(=O)OC(C)COCc1ccccc1 (configuration not stated)
- T/C [2]: 107 % of control
- T/C [3]: 89 % of control
- T/C [1]: 100 % of control

Structure (SMILES): O=C(O)C(F)(F)C(F)(F)C(F)(F)F
- T/C [2]: 105 % of control
- T/C [3]: 103 % of control
- T/C [1]: 92 % of control

From PubChem BioAssay AID248 (DTP/NCI, 2004)
